Source: PMC2836207 (Journal of medicinal chemistry, 2009)

Molecular target: MDA-MB-231 cells (Homo sapiens, UniProt P05556+P26006)
Experiment: on-bead whole cell binding assay
Format: cell-based
Settings: cell-growth-on-bead assay

MDA-MB-231 cells, sequence (P26006 33-1051): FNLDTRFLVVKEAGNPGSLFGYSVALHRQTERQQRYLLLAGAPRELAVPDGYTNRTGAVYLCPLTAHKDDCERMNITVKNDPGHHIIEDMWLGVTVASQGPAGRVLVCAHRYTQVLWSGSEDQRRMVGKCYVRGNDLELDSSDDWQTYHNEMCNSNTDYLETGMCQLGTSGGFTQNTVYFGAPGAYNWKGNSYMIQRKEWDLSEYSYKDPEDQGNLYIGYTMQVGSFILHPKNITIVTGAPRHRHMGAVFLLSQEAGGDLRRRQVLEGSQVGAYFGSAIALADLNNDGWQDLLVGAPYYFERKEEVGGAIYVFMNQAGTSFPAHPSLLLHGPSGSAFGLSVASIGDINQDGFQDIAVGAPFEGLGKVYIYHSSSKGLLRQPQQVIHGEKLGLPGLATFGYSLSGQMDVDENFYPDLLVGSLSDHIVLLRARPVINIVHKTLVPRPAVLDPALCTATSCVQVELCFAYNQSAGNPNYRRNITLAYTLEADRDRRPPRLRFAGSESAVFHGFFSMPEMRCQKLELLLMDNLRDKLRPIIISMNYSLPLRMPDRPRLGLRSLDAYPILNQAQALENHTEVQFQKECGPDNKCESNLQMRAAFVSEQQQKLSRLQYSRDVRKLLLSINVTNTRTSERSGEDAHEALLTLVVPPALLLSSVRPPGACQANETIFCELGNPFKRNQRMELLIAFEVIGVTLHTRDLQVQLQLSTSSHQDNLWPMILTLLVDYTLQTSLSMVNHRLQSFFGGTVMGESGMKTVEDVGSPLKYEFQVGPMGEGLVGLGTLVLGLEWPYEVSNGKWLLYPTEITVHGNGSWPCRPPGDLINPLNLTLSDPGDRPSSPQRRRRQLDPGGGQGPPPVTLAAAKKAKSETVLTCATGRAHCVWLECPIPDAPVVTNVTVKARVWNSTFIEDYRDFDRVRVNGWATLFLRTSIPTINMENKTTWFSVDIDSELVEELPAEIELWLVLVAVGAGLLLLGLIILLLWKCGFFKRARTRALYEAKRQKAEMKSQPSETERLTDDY
MDA-MB-231 cells, sequence (P05556 21-798): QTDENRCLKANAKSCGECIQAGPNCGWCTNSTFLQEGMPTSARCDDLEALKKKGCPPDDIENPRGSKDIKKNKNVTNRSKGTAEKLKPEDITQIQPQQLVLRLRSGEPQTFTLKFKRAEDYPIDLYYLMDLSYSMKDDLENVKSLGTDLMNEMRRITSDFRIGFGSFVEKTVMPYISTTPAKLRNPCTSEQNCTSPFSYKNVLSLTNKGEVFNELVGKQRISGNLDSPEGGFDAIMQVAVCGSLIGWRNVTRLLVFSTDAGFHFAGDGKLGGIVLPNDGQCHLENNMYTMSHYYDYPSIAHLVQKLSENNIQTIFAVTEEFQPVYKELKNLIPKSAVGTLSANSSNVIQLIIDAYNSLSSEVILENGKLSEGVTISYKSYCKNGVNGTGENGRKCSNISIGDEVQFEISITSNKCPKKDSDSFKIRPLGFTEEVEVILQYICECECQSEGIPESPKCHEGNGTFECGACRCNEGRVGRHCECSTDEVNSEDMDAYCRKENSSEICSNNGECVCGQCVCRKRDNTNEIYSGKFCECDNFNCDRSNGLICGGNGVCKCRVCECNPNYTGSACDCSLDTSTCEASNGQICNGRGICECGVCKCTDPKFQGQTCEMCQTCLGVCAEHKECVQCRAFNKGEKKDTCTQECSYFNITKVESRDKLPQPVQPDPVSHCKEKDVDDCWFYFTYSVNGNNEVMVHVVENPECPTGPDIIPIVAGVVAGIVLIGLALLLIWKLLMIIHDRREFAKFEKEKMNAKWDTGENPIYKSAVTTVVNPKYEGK

- cell binding to peptide bead: shown to bind
Substance: cEGLGEWc
